In article PMC10728248, “A Novel Near-Infrared Fluorescence Probe THK-565 Enables In Vivo Detection of Amyloid Deposits in Alzheimer’s Disease Mouse Model” (Molecular Imaging and Biology, 2023):

Target: T1, amyloid-β (Aβ1-40) fibrils (Homo sapiens, UniProt P05067)
T1 construct: gene APP; Aβ1-40, aggregated (fibrils)
Test: fluorescence saturation binding (ΔF at […] nm, fibrils vs soluble Aβ)

T1 sequence (P05067 672-711): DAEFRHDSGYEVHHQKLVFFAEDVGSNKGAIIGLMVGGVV

Cc1ccc2c(c1)C(C)(C)C1(/C=C/C=C/c3ccc(N(C)C)cc3)NC(=O)CCN21 (stereo not shown) [THK-565, 10a-[(1E,3E)-4-(4-dimethylamino-phenyl)-buta-1,3-dienyl]-8,10,10-trimethyl-3,4,10,10a-tetrahydro-1H-pyrimido[1,2-a]indol-2-one]
Kd: 156 nM
